Reference: paper PMC8425678, “1-Oxo-3,4-dihydroisoquinoline-4-carboxamides as novel druglike inhibitors of poly(ADP-ribose) polymerase (PARP) with favourable ADME characteristics” (Journal of Enzyme Inhibition and Medicinal Chemistry, 2021)
“Also recorded” adds a separate entry of the source.

Assays:
PARP1 = target: T1, PARP1 (Homo sapiens, UniProt P09874); experiment: PARP1 colorimetric activity assay kit (BPS Bioscience); type: biochemical; conditions: for inhibition at 1 µM: read-out: PARP1 % inhibition at 1 µM, 1 µM compound, triplicate (n = 3); for IC50: dose-response, mean (n = 3) ± SD, r^2 in brackets; for PARP1 inhibitory potency in words: compared with 3l
T1 construct: purchased BPS Bioscience (San Diego, CA)
T1 sequence (P09874 whole entry): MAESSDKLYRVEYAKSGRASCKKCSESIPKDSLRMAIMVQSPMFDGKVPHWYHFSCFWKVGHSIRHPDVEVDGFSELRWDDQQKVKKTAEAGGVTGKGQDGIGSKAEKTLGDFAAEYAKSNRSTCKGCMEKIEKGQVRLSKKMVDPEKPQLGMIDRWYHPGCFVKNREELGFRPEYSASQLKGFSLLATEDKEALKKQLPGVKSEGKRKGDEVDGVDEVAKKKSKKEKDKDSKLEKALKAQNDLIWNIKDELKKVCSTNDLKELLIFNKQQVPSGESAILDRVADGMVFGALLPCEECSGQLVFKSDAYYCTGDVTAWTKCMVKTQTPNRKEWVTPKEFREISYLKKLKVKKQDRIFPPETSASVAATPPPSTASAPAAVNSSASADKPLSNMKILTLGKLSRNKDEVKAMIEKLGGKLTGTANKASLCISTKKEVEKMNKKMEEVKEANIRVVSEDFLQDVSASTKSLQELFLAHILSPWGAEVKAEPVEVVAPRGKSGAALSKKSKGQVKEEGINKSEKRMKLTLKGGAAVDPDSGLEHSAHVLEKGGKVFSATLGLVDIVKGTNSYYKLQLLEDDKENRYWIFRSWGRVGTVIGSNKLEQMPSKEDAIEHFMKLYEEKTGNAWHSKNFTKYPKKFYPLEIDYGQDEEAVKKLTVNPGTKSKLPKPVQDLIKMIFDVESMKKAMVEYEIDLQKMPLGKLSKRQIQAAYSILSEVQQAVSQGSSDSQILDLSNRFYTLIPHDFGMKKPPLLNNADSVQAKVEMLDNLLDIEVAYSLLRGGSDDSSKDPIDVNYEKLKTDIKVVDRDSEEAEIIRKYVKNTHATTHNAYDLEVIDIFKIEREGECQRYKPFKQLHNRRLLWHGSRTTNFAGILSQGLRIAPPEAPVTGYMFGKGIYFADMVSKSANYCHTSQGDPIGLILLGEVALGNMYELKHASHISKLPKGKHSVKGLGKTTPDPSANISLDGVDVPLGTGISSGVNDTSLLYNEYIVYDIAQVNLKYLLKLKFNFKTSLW
Procedure: (§1) The thirty-six 1-oxo-3,4-dihydroisoquinoline-4-carboxamides 3a-aj and 1-oxoisoquinoline-4-carboxamide 11 were tested for inhibitory activity towards PARP1 and PARP2 using the commercially available colorimetric activity assay kit from BPS Bioscience (San Diego, CA) in full accordance of the supplier’s method description[13]^,[14]. The initial screening was performed against PARP1 at 1 µM concentration of each compound, in triplicate (n = 3) measurements.

PARP2 = target: T2, PARP2 (Homo sapiens, UniProt Q9UGN5); experiment: PARP2 colorimetric activity assay kit (BPS Bioscience); type: biochemical; conditions: for IC50: dose-response, mean (n = 3) ± SD, r^2 in brackets
T2 construct: purchased BPS Bioscience (San Diego, CA)
T2 sequence (Q9UGN5 whole entry): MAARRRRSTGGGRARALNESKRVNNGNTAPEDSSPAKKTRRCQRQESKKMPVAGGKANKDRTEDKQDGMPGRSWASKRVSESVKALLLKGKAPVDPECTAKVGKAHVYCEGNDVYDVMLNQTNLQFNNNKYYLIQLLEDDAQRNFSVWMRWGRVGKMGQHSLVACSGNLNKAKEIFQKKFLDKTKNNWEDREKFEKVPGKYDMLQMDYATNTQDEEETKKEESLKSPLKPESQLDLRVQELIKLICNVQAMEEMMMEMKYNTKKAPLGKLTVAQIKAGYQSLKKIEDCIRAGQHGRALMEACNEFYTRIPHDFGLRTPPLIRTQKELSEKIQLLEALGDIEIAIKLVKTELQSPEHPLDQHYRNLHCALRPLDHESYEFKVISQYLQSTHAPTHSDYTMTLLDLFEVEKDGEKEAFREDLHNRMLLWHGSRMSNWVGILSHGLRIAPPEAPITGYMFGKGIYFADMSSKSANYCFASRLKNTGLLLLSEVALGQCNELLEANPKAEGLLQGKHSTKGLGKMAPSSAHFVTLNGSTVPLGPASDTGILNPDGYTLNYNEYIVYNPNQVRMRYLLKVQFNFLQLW
Procedure: as §1

Row | Compound | inhibition at 1 µM (PARP1) [%] | melting point [°C] | also measured
1 | CCOC(=O)N1CCN(C(=O)C2CNC(=O)c3ccccc32)CC1 (stereo not shown) [Compound 3a, Ethyl 4–(1-oxo-1,2,3,4-tetrahydroisoquinoline-4-carbonyl)piperazine-1-carboxylate] | 26.3 ± 7.7 | – | –
2 | CC1CCN(C2CCN(C(=O)C3CNC(=O)c4cc(F)ccc43)CC2)CC1 (stereo not shown) [Compound 3ab, 7-Fluoro-4–(4-methyl-[1,4'-bipiperidine]-1'-carbonyl)-3,4-dihydroisoquinolin-1(2H)-one] | 93.9 ± 0.2 | 171 to 172 | IC50 (PARP1): 82 ± 6.9 nM; SI, selectivity index (PARP2 over PARP1) (PARP2): 2.82; IC50 (PARP2): 28.8 ± 4.2 nM
3 | O=C1NCC(C(=O)N2CCC(N3CCCC3)CC2)c2ccc(F)cc21 (stereo not shown) [Compound 3ac, 7-Fluoro-4–(4-(pyrrolidin-1-yl)piperidine-1-carbonyl)-3,4-dihydroisoquinolin-1(2H)-one] | 95.8 ± 0.7 | 141 to 142 | IC50 (PARP1): 69.5 ± 8.8 nM; SI, selectivity index (PARP2 over PARP1) (PARP2): 2.3; IC50 (PARP2): 29.6 ± 6.1 nM
4 | CCN(CC)C1CCN(C(=O)C2CNC(=O)c3cc(F)ccc32)CC1 (stereo not shown) [Compound 3ad, 4–(4-(Diethylamino)piperidine-1-carbonyl)-7-fluoro-3,4-dihydroisoquinolin-1(2H)-one] | 92.6 ± 1.1 | 134 to 135 | IC50 (PARP1): 128 ± 7.1 nM; SI, selectivity index (PARP2 over PARP1) (PARP2): 3.23; IC50 (PARP2): 40.4 ± 5.8 nM
5 | O=C1NCC(C(=O)N2CCC(N3CCCCCC3)CC2)c2ccc(F)cc21 (stereo not shown) [Compound 3ae, 4-(4-(Azepan-1-yl)piperidine-1-carbonyl)-7-fluoro-3,4-dihydroisoquinolin-1(2H)-one] | 96.6 ± 0.3 | 179 to 180 | IC50 (PARP1): 55 ± 9.9 nM; SI, selectivity index (PARP2 over PARP1) (PARP2): 2.61; IC50 (PARP2): 20.6 ± 2.5 nM
6 | CC1(C)CCCN(C2CCN(C(=O)C3CNC(=O)c4cc(F)ccc43)CC2)C1 (stereo not shown) [Compound 3af, 4–(3,3-Dimethyl-[1,4'-bipiperidine]-1'-carbonyl)-7-fluoro-3,4-dihydroisoquinolin-1(2H)-one] | 96.9 ± 0.5 | 182 to 183 | IC50 (PARP1): 95.6 ± 11.5 nM; SI, selectivity index (PARP2 over PARP1) (PARP2): 5.05; IC50 (PARP2): 19.4 ± 3.7 nM
7 | CC1(C)CCN(C2CCN(C(=O)C3CNC(=O)c4cc(F)ccc43)CC2)CC1 (stereo not shown) [Compound 3ag, 4–(4,4-Dimethyl-[1,4'-bipiperidine]-1'-carbonyl)-7-fluoro-3,4-dihydroisoquinolin-1(2H)-one] | 95 ± 0.9 | 200 to 201 | IC50 (PARP1): 102 ± 9.4 nM; SI, selectivity index (PARP2 over PARP1) (PARP2): 4.63; IC50 (PARP2): 22 ± 5.6 nM
8 | O=C1NCC(C(=O)N2CCC(N3CCC(F)(F)CC3)CC2)c2ccc(F)cc21 (stereo not shown) [Compound 3ah, 4–(4,4-Difluoro-[1,4'-bipiperidine]-1'-carbonyl)-7-fluoro-3,4-dihydroisoquinolin-1(2H)-one] | 81.9 ± 1.8 | – | IC50 (PARP1): 371 ± 42 nM; SI, selectivity index (PARP2 over PARP1) (PARP2): 4.46; IC50 (PARP2): 83.1 ± 6.9 nM
9 | O=C1NCC(C(=O)N2CCC(N3CCC(F)CC3)CC2)c2ccc(F)cc21 (stereo not shown) [Compound 3ai, 7-Fluoro-4–(4-fluoro-[1,4'-bipiperidine]-1'-carbonyl)-3,4-dihydroisoquinolin-1(2H)-one] | 93.7 ± 0.8 | – | IC50 (PARP1): 148 ± 17 nM; SI, selectivity index (PARP2 over PARP1) (PARP2): 3.52; IC50 (PARP2): 42 ± 2.3 nM
10 | CC1CCN(C(=O)C2CNC(=O)c3ccccc32)CC1 (stereo not shown) [Compound 3b, 4–(4-Methylpiperidine-1-carbonyl)-3,4-dihydroisoquinolin-1(2H)-one] | 42.7 ± 0.9 | – | –
11 | CN(Cc1ccccc1)C(=O)C1CNC(=O)c2ccccc21 (stereo not shown) [Compound 3c, N-Benzyl-N-methyl-1-oxo-1,2,3,4-tetrahydroisoquinoline-4-carboxamide] | 18.6 ± 13.2 | 148 to 149 | –
12 | O=C1NCC(C(=O)NCc2ccc(Cl)cc2)c2ccccc21 (stereo not shown) [Compound 3d, N-(4-Chlorobenzyl)-1-oxo-1,2,3,4-tetrahydroisoquinoline-4-carboxamide] | 7.4 ± 8.7 | – | –
13 | O=C1NCC(C(=O)N2CCc3ccccc3C2)c2ccccc21 (stereo not shown) [Compound 3e, 4–(1,2,3,4-Tetrahydroisoquinoline-2-carbonyl)-3,4-dihydroisoquinolin-1(2H)-one] | 56 ± 7.5 | 222 to 223 | –
14 | CCN1CCN(C(=O)C2CNC(=O)c3ccccc32)CC1 (stereo not shown) [Compound 3f, 4–(4-ethylpiperazine-1-carbonyl)-3,4-dihydroisoquinolin-1(2H)-one] | 26.2 ± 9.7 | – | –
15 | CCOC(=O)C1CCN(C(=O)C2CNC(=O)c3ccccc32)CC1 (stereo not shown) [Compound 3g, Ethyl 1–(1-oxo-1,2,3,4-tetrahydroisoquinoline-4-carbonyl)piperidine-4-carboxylate] | 47.6 ± 4.1 | 120 to 121 | –
16 | CN1CCN(C(=O)C2CNC(=O)c3ccccc32)CC1 (stereo not shown) [Compound 3h, 4–(4-Methylpiperazine-1-carbonyl)-3,4-dihydroisoquinolin-1(2H)-one] | 27.3 ± 6 | 163 to 164 | –
17 | Cc1ccc(S(=O)(=O)N2CCN(C(=O)C3CNC(=O)c4ccccc43)CC2)cc1 (stereo not shown) [Compound 3i, 4–(4-Tosylpiperazine-1-carbonyl)-3,4-dihydroisoquinolin-1(2H)-one] | 28.9 ± 5.5 | 228 to 229 | –

Row | Compound | inhibition at 1 µM (PARP1) [%] | melting point [°C] | also measured
18 | O=C1NCC(C(=O)N2CCOCC2)c2ccccc21 (stereo not shown) [Compound 3j, 4-(Morpholine-4-carbonyl)-3,4-dihydroisoquinolin-1(2H)-one] | 57.6 ± 5.8 | – | –
19 | O=C1NCC(C(=O)N2CCC(Cc3ccccc3)CC2)c2ccccc21 (stereo not shown) [Compound 3k, 4–(4-Benzylpiperidine-1-carbonyl)-3,4-dihydroisoquinolin-1(2H)-one] | 45.1 ± 1.7 | 191 to 192 | –
20 | O=C1NCC(C(=O)N2CCCC2)c2ccccc21 (stereo not shown) [Compound 3m, 4-(Pyrrolidine-1-carbonyl)-3,4-dihydroisoquinolin-1(2H)-one] | 31.2 ± 3.4 | – | –
21 | O=C1NCC(C(=O)N2CCCCCC2)c2ccccc21 (stereo not shown) [Compound 3n, 4-(Azepane-1-carbonyl)-3,4-dihydroisoquinolin-1(2H)-one] | 35.4 ± 5.1 | – | –
22 | O=C1NCC(C(=O)N2CCSCC2)c2ccccc21 (stereo not shown) [Compound 3o, 4-(Thiomorpholine-4-carbonyl)-3,4-dihydroisoquinolin-1(2H)-one] | 47.4 ± 3.7 | 171 to 172 | –
23 | O=C1NCC(C(=O)NCc2ccc(F)cc2)c2ccccc21 (stereo not shown) [Compound 3p, N-(4-Fluorobenzyl)-1-oxo-1,2,3,4-tetrahydroisoquinoline-4-carboxamide] | 27.2 ± 4.3 | 188 to 189 | –
24 | COc1ccccc1N1CCN(C(=O)C2CNC(=O)c3ccccc32)CC1 (stereo not shown) [Compound 3q, 4–(4-(2-Methoxyphenyl)piperazine-1-carbonyl)-3,4-dihydroisoquinolin-1(2H)-one] | 32.9 ± 2.4 | 155 to 156 | –
25 | O=C1NCC(C(=O)N2CCC3(CCCCO3)CC2)c2ccccc21 (stereo not shown) [Compound 3r, 4–(1-Oxa-9-azaspiro[5.5]undecane-9-carbonyl)-3,4-dihydroisoquinolin-1(2H)-one] | 28.5 ± 7.1 | – | –
26 | O=C1NCC(C(=O)NCc2ccc(N3CCCCC3)cc2)c2ccccc21 (stereo not shown) [Compound 3s, 1-oxo-N-(4-(piperidin-1-yl)benzyl)-1,2,3,4-tetrahydroisoquinoline-4-carboxamide] | 12.5 ± 8.5 | 235 to 236 | –
27 | O=C1NCC(C(=O)N2CCN(Cc3ccc(F)cc3)CC2)c2ccccc21 (stereo not shown) [Compound 3t, 4–(4–(4-Fluorobenzyl)piperazine-1-carbonyl)-3,4-dihydroisoquinolin-1(2H)-one] | 43.3 ± 5.9 | – | –
28 | O=C1NCC(C(=O)N2CCN(Cc3ccccc3F)CC2)c2ccccc21 (stereo not shown) [Compound 3u, 4–(4-(2-Fluorobenzyl)piperazine-1-carbonyl)-3,4-dihydroisoquinolin-1(2H)-one] | 31.9 ± 2 | – | –
29 | O=C1NCC(C(=O)N2CCC(N3CCOCC3)CC2)c2ccccc21 (stereo not shown) [Compound 3v, 4–(4-Morpholinopiperidine-1-carbonyl)-3,4-dihydroisoquinolin-1(2H)-one] | 33.2 ± 4.8 | – | PARP1 inhibitory potency in words (PARP1): significantly less potent; also recorded: inactive
30 | O=C1NCC(C(=O)N2CCNCC2)c2ccccc21 (stereo not shown) [Compound 3w, 4-(Piperazine-1-carbonyl)-3,4-dihydroisoquinolin-1(2H)-one] | 66.9 ± 1.5 | – | –
31 | O=C1NCC(C(=O)N2CCN(C3CCCC3)CC2)c2ccccc21 (stereo not shown) [Compound 3x, 4–(4-Cyclopentylpiperazine-1-carbonyl)-3,4-dihydroisoquinolin-1(2H)-one] | 44.6 ± 2.9 | 177 to 178 | –
32 | O=C1NCC(C(=O)N2CCN(C3CCCCC3)CC2)c2ccccc21 (stereo not shown) [Compound 3y, 4–(4-Cyclohexylpiperazine-1-carbonyl)-3,4-dihydroisoquinolin-1(2H)-one] | 54.5 ± 4.6 | 197 to 198 | PARP1 inhibitory potency in words (PARP1): significantly less potent; PARP1 inhibitory potency in words (PARP1; listed as 3 y): inactive
33 | O=C1NCC(C(=O)N2CCN(C3CCCCCC3)CC2)c2ccccc21 (stereo not shown) [Compound 3z, 4–(4-Cycloheptylpiperazine-1-carbonyl)-3,4-dihydroisoquinolin-1(2H)-one] | 45.2 ± 7.4 | 207 to 208 | –
34 | O=C(c1c[nH]c(=O)c2ccccc12)N1CCC(N2CCCCC2)CC1 [Compound 11, 4-([1,4'-Bipiperidine]-1'-carbonyl)isoquinolin-1(2H)-one] | 49.1 ± 2.6 | 171 to 174 | fold lower potency compared to 3l or 3aa (PARP1; 3,4-dehydro analog vs 3l / 3aa): approximately 10 fold
